The source of these data is publication PMC8569681, “New Pyrimidine and Pyridine Derivatives as Multitarget Cholinesterase Inhibitors: Design, Synthesis, and In Vitro and In Cellulo Evaluation” (ACS Chemical Neuroscience, 2021).

This assay is described as follows: Antioxidant activity, DPPH spectrophotometric method. The settings on record: DPPH, absorbance at 515 nm. Here is the method:
The antioxidant activity assays were carried out according to the 2,2-diphenyl-1-picrylhydrazyl (DPPH) spectrophotometric method.[34] Initially, to assess whether the compounds had antioxidant activity and to define the time required by each antioxidant to reach the steady state, the reduction in absorbance over time at 515 nm of a solution of DPPH mixed with the tested compound was recorded until reaching the plateau. […] The value of EC50 can be extrapolated by plotting the percentage of residual DPPH at the steady state as a function of the molar ratio of the antioxidant to initial DPPH.
2,2-Diphenyl-1-picrylhydrazyl (DPPH), MeOH, and ascorbic acid, used as the reference standard, were purchased from Sigma-Aldrich. Micropipettes Labmate (BRAND Dig. 10–100 μL; Dig. 100–1000 μL) and Transferpette (HIGH TECH LAB LM200: 20–200 μL; LM5000: 1000–5000 μL) were used to collect the samples. The assays were carried out by a double beam UV–vis Lambda 40 Perkin Elmer spectrophotometer using optical polystyrene cuvettes (10 × 10 × 45 mm, 340–800 nm optical transparency); each measure was repeated at least in triplicate. For data processing, UV-WIN Lab version 2.0 (Perkin Elmer Corporation) was used. The antioxidant activity of the tested compounds was evaluated by the DPPH method[34] based on the ability of antioxidant compounds to react with the stable radical DPPH, which has a maximum absorption at about 515 nm. Thus, by measuring the decrease in absorbance over time of DPPH solutions to which increasing amounts of the tested compound are added, the antioxidant activity of the compound can be determined.
[…]. To 2.90 mL of MeOH, 60 μL of a DPPH solution in MeOH (∼1.2 mM) and 40 μL of an antioxidant solution in MeOH (4.5 mM) were added to have in the cuvette concentrations of DPPH equal to about 25 μM and of antioxidant equal to 60 μM. The exact DPPH concentration was calculated through the Lambert–Beer relation, known the extinction coefficient of DPPH at 515 nm, equal to 1.25 × 10^4.[34] The absorbance was recorded until the plateau was reached.
. To obtain the initial DPPH concentration, 2.94 mL of MeOH and 60 μL of the DPPH solution in MeOH (∼1.2 mM) were placed in a polystyrene cuvette and the absorbance was recorded at 515 nm. The exact initial DPPH concentration was calculated through the Lambert–Beer relation. For subsequent measurements, the cuvettes were set up by introducing the opportune volume of MeOH to reach a total volume of 3 mL, 60 μL of the DPPH solution in MeOH (∼1.2 mM, to have a final concentration of ∼25 μM), and the appropriate volumes of the antioxidant stock solution in MeOH to have final concentrations between 1.5 and 12 μM for 20 and between 5 and 60 μM for 18 and 30; the absorbance was recorded at 515 nm at the plateau and then after 1 min for compound 20 and after 90 min for compounds 18 and 30. Each measure was repeated four times. With absorbance data, the percentages of residual DPPH at steady state were obtained using the following equation: [drawing 3] where Ac is the average of absorbance in the presence of antioxidant at plateau and A0 is the average of the initial absorbance of DPPH.
The same procedure was performed using ascorbic acid as the antioxidant at cuvette concentrations between 1.5 and 18 μM, recording the absorbance at 515 nm after 2 min from the preparation of the cuvettes.
On the technique in general: Loss of DPPH colour is used to gauge radical scavenging.

Turning to `CC(C)(C)OC(=O)NCCCCCCNc1ncccn1` [Compound 2, tert-Butyl {6-[(Pyrimidin-2-yl)amino]hexyl}carbamate], the “reaction time (time for reaching the plateau)” value is 1 min.
As for `O=C1O[C@H]([C@@H](O)CO)C(O)=C1O` [ascorbic acid, reference compound], the figure is 2 min.
